SMILES strings stand for the structures.

In this test the target is T1, human M4 muscarinic acetylcholine receptor (Homo sapiens, UniProt P08173).
T1 construct: expressed in transfected cells; host or cells: CHO-K1
T1 sequence (P08173 1-479): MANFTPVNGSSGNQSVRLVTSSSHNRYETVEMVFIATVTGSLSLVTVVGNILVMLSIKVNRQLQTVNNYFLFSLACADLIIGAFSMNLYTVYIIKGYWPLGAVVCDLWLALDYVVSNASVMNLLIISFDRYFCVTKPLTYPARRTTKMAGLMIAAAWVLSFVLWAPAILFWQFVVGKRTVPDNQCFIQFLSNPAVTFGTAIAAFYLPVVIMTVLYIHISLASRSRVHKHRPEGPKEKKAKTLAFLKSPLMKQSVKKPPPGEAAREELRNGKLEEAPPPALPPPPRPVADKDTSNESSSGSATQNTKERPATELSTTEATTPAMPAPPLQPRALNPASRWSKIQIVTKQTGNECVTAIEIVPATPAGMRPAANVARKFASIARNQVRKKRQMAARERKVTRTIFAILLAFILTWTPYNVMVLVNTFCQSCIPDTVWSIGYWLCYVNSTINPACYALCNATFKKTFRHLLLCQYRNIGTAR
Nature of the test: human FLIPR-based M4 PAM assay, CHO-K1 cells stably transfected with human M4 receptor and chimeric G-protein Gαqi5. Format: cell-based. As to conditions: inflection point (IP) of dose response curve; acetylcholine added at 20% of maximum response; CHO-K1 human M4/Gαqi5, FLIPR Tetra. How it is done:
In a typical experiment the M4 muscarinic acetylcholine receptor modulating activity of the compounds of the present invention was determined in accordance with the following experimental method. CHO-K1 cells stably transfected with human M4 receptor and chimeric G-protein Gαqi5 (Coward P, et al., Analytical Biochemistry, 270:242-248 (1999)) are thawed from liquid N2 storage, resuspended in growth medium, plated in black, clear bottom 384 well plates, and incubated 16-20 hours at 37° C., 5% CO2. On the day of assay, growth medium is removed, the cells are washed 2 times with wash buffer, and cells are incubated in dye loading buffer at 37° C., 5% CO2 for ˜1 hour. Following dye loading the cell plates are placed in a FLIPR Tetra instrument and while monitoring dye fluorescence (excitation […]), 10 uL of test substance at increasing concentrations is added, and fluorescence values are recorded for 4 min. Next, 10 uL of acetylcholine is added (final concentration calculated so as to achieve 20% of the maximum acetycholine response), and the fluorescence reading is continued for 3.5 min. In some cases, a third addition of acetylcholine (final concentration calculated to achieve 70% of the maximal acetylcholine response) is performed. The resulting dose response curves are fit to a 4 parameter logistic equation and the final result is determined as the inflection point (IP) of the curve
CHO-K1 cells stably transfected with human M4 receptor and chimeric G-protein Gαqi5 are thawed from liquid N2 storage, resuspended in growth medium, plated in black, clear bottom 384 well plates, and incubated 16-20 hours at 37° C., 5% CO2.
On the day of assay, growth medium is removed, the cells are washed 2 times with wash buffer, and cells are incubated in dye loading buffer at 37° C., 5% CO2 for ˜1 h. Following dye loading the cell plates are placed in a FLIPR Tetra instrument and while monitoring dye fluorescence ([…]), 10 uL of test substance at increasing concentrations is added, and fluorescence values are recorded for 4 min. Next, 10 uL of acetylcholine is added (final concentration calculated so as to achieve 20% of the maximum acetycholine response), and the fluorescence reading is continued for 3.5 min. In some cases, a third addition of acetylcholine (final concentration calculated to achieve 70% of the maximal acetylcholine response) is performed.
Turning to `Cc1c(Cl)nc(CO)nc1N1CCC(Oc2ccc3c(c2)NC(=O)CC3)CC1` [Example 30, 7-((1-(6-chloro-2-(hydroxymethyl)-5-methylpyrimidin-4-yl)piperidin-4-yl)oxy)-3,4-dihydroquinolin-2(1H)-one], the EC50 is 140 nM.
The value for `Cc1c(Cl)nc(CO)nc1N1CCC(Oc2ccc3c(cnn3C)c2)CC1` [Example 31, (4-chloro-5-methyl-6-(4-((1-methyl-1H-indazol-5-yl)oxy)piperidin-1-yl)pyrimidin-2-yl)methanol] was 157 nM; that for `Cc1c(Cl)nc(CO)nc1N1CCC(Oc2ccc3c(c2)C(=O)N(C)C3)CC1` [Example 33, 6-((1-(6-chloro-2-(hydroxymethyl)-5-methypyrimidin-4-yl)piperidin-4-yl)oxy)-2-methylisoindolin-1-one] was 210 nM; that for `COc1ccc(OC2CCN(c3ncc(C#N)c(Cl)c3C)CC2)cn1` [Example 34, 4-chloro-5-(4-((6-methoxypyridin-3-yl)oxy)piperidin-1-yl)-5-methylnicotinonitrile] was 217 nM.
The value for `Cc1c(Cl)nc(CO)nc1N1CCC(Oc2ccc3c(c2)NCCC3)CC1` [Example 35, (4-chloro-5-methyl-6-(4-((1,2,3,4-tetrahydroquinolin-7-yl)oxy)piperidin-1-yl)pyrimidin-2-yl)methanol] was 220 nM; that for `Cc1c(Cl)nc(CO)nc1N1CCC(Oc2ccc3c(c2)CCCC3=O)CC1` [Example 36, 6-((1-(6-chloro-2-(hydroxymethyl)-5-methylpyrimidin-4-yl)piperidin-4-yl)oxy)-3,4-dihydronaphthalen-1(2H)-one] was 222 nM.
The value for `COC(=O)c1cnc(N2CCC(Oc3ccc(OC)nc3)CC2)c(C)c1` [Example 37, methyl 6-(4-((6-methoxypyridin-3-yl)oxy)piperidin-1-yl)-5-methylnicotinate] was 225 nM; that for `Cc1c(Cl)nc(CO)nc1N1CCC(Oc2ccc3c(c2)C(=O)CCC3)CC1` [Example 38, 7-((1-(6-chloro-2-(hydroxymethyl)-5-methylpyrimidin-4-yl)piperidin-4-yl)oxy)-3,4-dihydronaphthalen-1(2H)-one] was 252 nM; that for `Cc1cc(C(=O)NCc2ccncc2)nnc1N1CCC(Oc2cnn(CC3CC3)c2)CC1` [Example 39, 6-(4-((1-(cyclopropylmethyl)-1H-pyrazol-4-yl)oxy)piperidin-1-yl)-5-methyl-N-(pyridin-4-ylmethyl)pyridazine-3-carboxamide] was 278 nM.
In the case of `COC(=O)c1cc(C)c(N2CC[C@H](Oc3ccc(OC)nc3)[C@H](F)C2)nn1` [Example 40, methyl 6-((3R,4S)-3-fluoro-4-((6-methoxypyridin-3-yl)oxy)piperidin-1-yl)-5-methylpyridazine-3-carboxylate], the concentration for a half-maximal effect (EC50) was 290 nM.
The value for `Cc1c(Cl)nc(CO)nc1N1CCC(Oc2ccc3c(c2)C(=O)N(C)CC3)CC1` [Example 41, 7-((1-(6-chloro-2-(hydroxymethyl)-5-methylpyrimidin-4-yl)piperidin-4-yl)oxy)-2-methyl-3,4-dihdyroisoquinolin-1(2H)-one] was 322 nM; that for `Cc1c(Cl)nc(CO)nc1N1CCC(Oc2cccc(S(C)(=O)=O)c2)CC1` [Example 42, (4-chloro-5-methyl-6-(4-(3-(methylsulfonyl)phenoxy)piepridin-1-yl)pyrimidin-2-yl)methanol] was 325 nM.
The value for `Cc1c(Cl)nc(CO)nc1N1CC[C@@H](Oc2ccc3c(c2)C(=O)N(C)C3)[C@@H](F)C1` [Example 43, 6-(((3S,4R)-1-(6-chloro-2-(hydroxymethyl)-5-methylpyrimidin-4-yl)-3-fluoropiperidin-4-yl)oxy)-2-methylisoindolin-1-one] was 378 nM; that for `Cc1nc2cc(OC3CCN(c4nc(CO)nc(Cl)c4C)CC3)ccc2s1` [Example 44, 4(4-chloro-5-methyl-6-(4-((2-methylbenzo[d]thiazol-5-yl)oxy)piperidin-1-yl)pyrimidin-2-yl)methanol] was 446 nM.
Regarding `COC(=O)c1cc(C)c(N2CCC(Oc3ccc(OC)nc3)CC2)nc1C#N` [Example 45, methyl 2-cyano-6-(4-((6-methoxypyridin-3-yl)oxy)piperidin-1-yl)-5-methylnicotinate], the EC50 amounted to 493 nM.
The value for `COC(=O)c1cc(C(=O)OC)c(N2CCC(Oc3ccc(OC)nc3)CC2)nc1C#N` [Example 46, dimethyl 2-cyano-6-(4-((6-methoxypyridin-3-yl)oxy)piperidin-1-yl)pyridine-3,5-dicarboxylate] was 939 nM.
The value for `COc1ccc(OC2CCN(c3nc(CO)nc(Cl)c3C)CC2)cc1` [Example 47, (4-chloro-6-(4-(4-methoxyphenoxy)piperidin-1-yl)-5-methypyrimidin-2-yl)methanol] was 25 nM; that for `COc1ccc(OC2CCN(c3nc(CO)nc(Cl)c3C)CC2)cc1C#N` [Example 48, 5-((1-(6-chloro-2-(hydroxymethyl)-5-methylpyrimidin-4-yl)piperidin-4-yl)oxy)-2-methoxybenzonitrile] was 44 nM; that for `COc1ccc(OC2CCN(c3ncnc(Cl)c3C)CC2)cn1` [Example 49, 4-chloro-6-(4-((6-methoxypyridin-3-yl)oxy)piperidin-1-yl)-5-methylpyrimidine] was 44 nM.
The value for `Cc1c(Cl)ncnc1N1CCC(Oc2cccc(C#N)c2)CC1` [Example 50, 3-((1-(6-chloro-5-methypyrimidin-4-yl)piperidin-4-yl)oxy)benzonitrile] was 49 nM; that for `Cc1c(Cl)nc(CO)nc1N1CCC(Oc2cccc(C#N)c2)CC1` [Example 51, 3-((1-(6-chloro-2-(hydroxymethyl)-5-methylpyrimidin-4-yl)piperidin-4-yl)oxy)benzonitrile] was 51 nM.
The molecule `Cc1nc2ccc(O[C@@H]3CCN(c4nc(CO)nc(Cl)c4C)C[C@@H]3F)cc2o1` [Example 52, (4-chloro-6-((3S,4R)-3-fluoro-4-((2-methylbenzo[d]oxazol-6-yl)oxy)piperidin-1-yl)-5-methylpyrimidin-2-yl)methanol] yielded an EC50 of 53 nM.
The value for `COc1ncc(OC2CCN(c3nc(CO)nc(Cl)c3C)CC2)cc1F` [Example 54, (4-chloro-6-(4-((5-fluoro-6-methoxypyridin-3-yl)oxy)piperidin-1-yl)-5-methylpyrimidin-2-yl)methanol] was 55 nM; that for `Cc1nc(Cl)c(C)c(N2CCC(Oc3cccc(C#N)c3)CC2)n1` [Example 55, 3-((1-(6-chloro-2,5-dimethylpyrimidin-4-yl)piperidin-4-yl)oxy)benzonitrile] was 59 nM.
Turning to `Cc1nc(Cl)c(C)c(N2CCC(Oc3ccc4c(cnn4C)c3)CC2)n1` [Example 56, 5-((1-(6-chloro-2,5-dimethypyrimidin-4-yl)piperidin-4-yl)oxy)-1-methyl-1H-indazole], the concentration for a half-maximal effect (EC50) amounted to 60 nM.
Regarding `COc1ccc(OC2CCN(c3ncnc(Cl)c3C)CC2)cc1` [Example 57, 4-chloro-6-(4-(4-methoxyphenoxy)piperidin-1-yl)-5-methypyrimidine], the EC50 worked out at 61 nM.
In the case of `COC(=O)c1cc(C)c(N2CCC(Oc3cccc(C#N)c3)CC2)nn1` [Example 58, methyl 6-(4-(3-cyanophenoxy)piperidin-1-yl)-5-methylpyridazine-3-carboxylate], the EC50 came out at 64 nM.
The value for `Cc1ncc(C)c(N2CCC(Oc3ccc4[nH]ncc4c3)CC2)n1` [Example 59, 5-((1-(2,5-dimethylpyrimidin-4-yl)piperidin-4-yl)oxy)-1H-indazole] was 66 nM; that for `Cc1c(Cl)ncnc1N1CCC(Oc2ccc3c(cnn3C)c2)CC1` [Example 60, 5-((1-(6-chloro-5-methylpyrimidin-4-yl)piperidin-4-yl)oxy)-1-methyl-1H-indazole] was 67 nM.

Usually EC50 stands for the concentration at which the effect is half-maximal. A lower EC50 goes with higher potency in that assay.

The values are drawn from patent publication US11319298B2 (Merck Sharp & Dohme Corp., priority 2016, dated 2022).
